Values after ≈ are worked out from the molar mass of the structure shown. Values joined by “and” are separate entries in the source; they are usually repeats but may differ in a detail not shown here. Equal values may be shown once.
Legend:
Type in all cases: cell-based
HUMAN PBMCS = assay: Cytotoxicity in human PBMCs (XTT); details: for TOXICITY VALUES (XTT - O.D. @ 450/650 nm), SAMPLE: individual samples, listed as Trana 154
Experimental: In these studies, PHA-P stimulated PBMCs from three donors were pooled together and re-suspended in fresh tissue culture medium at 1×10^6 cells/mL and plated in the interior wells of a 96 well round bottom microplate at 50µl/well. A 100µL volume of 9 concentrations of compound serially diluted were transferred to the round-bottom 96 well plate containing the cells in triplicate. Fifty microliters (µL) of HIV-1 at a pre-determined dilution was added. Each plate contained cell control wells and virus control wells in parallel with the experimental wells. After 7 days in culture, efficacy was evaluated by measuring the reverse transcriptase in the culture supernatants and the cells were stained with the tetrazolium dye XTT to evaluate cytotoxicity.

HIV-1/Ba-L = assay: Inhibition of HIV-1 Ba-L replication in PBMC (RT values); details: for % VC: RT relative to virus control; for RT Values (cpm), SAMPLE: individual samples
Experimental: (§1) These compounds were further screened for activity in HIV-1-infected peripheral blood mononuclear cells (PBMC). The data (experiments were repeated, so duplicates are shown) is summarized in the tables below, and also in FIGS. 4A-B and 5A-B.
The HIV strain was HIV-1/Ba-L. The titer was 0.1 μL/well.

PBMC = assay: Toxicity in PBMC (Cell Titer 96); details: 0.01 μM
Source text: as §1

c1ccc(N/N=C2/CCc3ccccc3N2)cc1 [HIT #154]
% Cell Viability (HUMAN PBMCS; 0.32 μg/ml): 92.64%
Cytotoxicity Test Values Mean OD @ 450/650 nm (HUMAN PBMCS; 0.32 μg/ml): 1.038 OD
TOXICITY VALUES (XTT - O.D. @ 450/650 nm), SAMPLE (HUMAN PBMCS; 0.32 μg/ml): 0.9729 O.D. and 1.0510 O.D. and 1.0896 O.D.
% Cell Viability (HUMAN PBMCS; 1 μg/ml): 87.74%
Cytotoxicity Test Values Mean OD @ 450/650 nm (HUMAN PBMCS; 1 μg/ml): 0.983 OD
TOXICITY VALUES (XTT - O.D. @ 450/650 nm), SAMPLE (HUMAN PBMCS; 1 μg/ml): 0.9683 O.D. and 1.0187 O.D. and 0.9670 O.D.
% Cell Viability (HUMAN PBMCS; 3.16 μg/ml): 88.82%
Cytotoxicity Test Values Mean OD @ 450/650 nm (HUMAN PBMCS; 3.16 μg/ml): 0.995 OD
TOXICITY VALUES (XTT - O.D. @ 450/650 nm), SAMPLE (HUMAN PBMCS; 3.16 μg/ml): 0.9103 O.D. and 1.0889 O.D. and 0.9881 O.D.
% Cell Viability (HUMAN PBMCS; 9.99 μg/ml): 99.35%
Cytotoxicity Test Values Mean OD @ 450/650 nm (HUMAN PBMCS; 9.99 μg/ml): 1.113 OD
TOXICITY VALUES (XTT - O.D. @ 450/650 nm), SAMPLE (HUMAN PBMCS; 9.99 μg/ml): 1.1959 O.D. and 0.9242 O.D. and 1.2189 O.D.
% Cell Viability (HUMAN PBMCS; 31.6 μg/ml): 64.38%
Cytotoxicity Test Values Mean OD @ 450/650 nm (HUMAN PBMCS; 31.6 μg/ml): 0.721 OD
TOXICITY VALUES (XTT - O.D. @ 450/650 nm), SAMPLE (HUMAN PBMCS; 31.6 μg/ml): 0.6103 O.D. and 0.6005 O.D. and 0.7620 O.D.
% Cell Viability (HUMAN PBMCS; 100 μg/ml): 46.94%
Cytotoxicity Test Values Mean OD @ 450/650 nm (HUMAN PBMCS; 100 μg/ml): 0.526 OD
TOXICITY VALUES (XTT - O.D. @ 450/650 nm), SAMPLE (HUMAN PBMCS; 100 μg/ml): 0.4574 O.D. and 0.5742 O.D. and 0.5461 O.D.
TC 25% (HUMAN PBMCS; human PBMCs, XTT): 22.3 µg/mL (≈ 94 µM)
TC50 (TC 50%) (HUMAN PBMCS; human PBMCs, XTT): 81.7 µg/mL (≈ 344 µM)
TC 95% (HUMAN PBMCS; human PBMCs, XTT): >100 µg/mL
RT Values (cpm), MEAN (HIV-1/Ba-L; 0.01 μM): 29112.2 cpm
% VC (HIV-1/Ba-L; 0.01 μM): 98.8%
RT Values (cpm), SAMPLE (HIV-1/Ba-L; 0.01 μM): 31907 cpm and 25645 cpm and 29785 cpm
RT Values (cpm), MEAN (HIV-1/Ba-L; 0.03 μM): 29394.5 cpm
% VC (HIV-1/Ba-L; 0.03 μM): 99.8%
RT Values (cpm), SAMPLE (HIV-1/Ba-L; 0.03 μM): 28419 cpm and 27673 cpm and 32092 cpm
RT Values (cpm), MEAN (HIV-1/Ba-L; 0.10 μM): 28793.5 cpm
% VC (HIV-1/Ba-L; 0.10 μM): 97.8%
RT Values (cpm), SAMPLE (HIV-1/Ba-L; 0.10 μM): 24503 cpm and 28356 cpm and 33522 cpm
RT Values (cpm), MEAN (HIV-1/Ba-L; 0.32 μM): 28067.5 cpm
% VC (HIV-1/Ba-L; 0.32 μM): 95.3%
RT Values (cpm), SAMPLE (HIV-1/Ba-L; 0.32 μM): 30361 cpm and 24204 cpm and 29638 cpm
RT Values (cpm), MEAN (HIV-1/Ba-L; 1.00 μM): 19065.5 cpm
% VC (HIV-1/Ba-L; 1.00 μM): 64.7%
RT Values (cpm), SAMPLE (HIV-1/Ba-L; 1.00 μM): 18120 cpm and 21373 cpm and 17704 cpm
RT Values (cpm), MEAN (HIV-1/Ba-L; 3.16 μM): 15141.8 cpm
% VC (HIV-1/Ba-L; 3.16 μM): 51.4%
RT Values (cpm), SAMPLE (HIV-1/Ba-L; 3.16 μM): 12447 cpm and 16921 cpm and 16058 cpm
RT Values (cpm), MEAN (HIV-1/Ba-L; 10.0 μM): 12407.5 cpm
% VC (HIV-1/Ba-L; 10.0 μM): 42.1%
RT Values (cpm), SAMPLE (HIV-1/Ba-L; 10.0 μM): 13978 cpm and 10363 cpm and 12882 cpm
RT Values (cpm), MEAN (HIV-1/Ba-L; 31.6 μM): 9086.8 cpm
% VC (HIV-1/Ba-L; 31.6 μM): 30.9%
RT Values (cpm), SAMPLE (HIV-1/Ba-L; 31.6 μM): 10815 cpm and 7472 cpm and 8974 cpm
RT Values (cpm), MEAN (HIV-1/Ba-L; 100 μM): 2467.8 cpm
% VC (HIV-1/Ba-L; 100 μM): 8.4%
RT Values (cpm), SAMPLE (HIV-1/Ba-L; 100 μM): 3062 cpm and 2720 cpm and 1622 cpm
IC 95% (HIV-1/Ba-L; HIV-1 Ba-L in PBMC): 65.1 µM and >100 µM
ANTIVIRAL INDEX (AI) 95% (HIV-1/Ba-L; TC/IC at 95%): >1.54
TOXICITY VALUES (Cell Titer 96 - O.D. @ 490/650 nm), MEAN (PBMC): 0.990 O.D.
% CC (PBMC; O.D. relative to cell control): 119.6%

Reference: patent publication US9877956B2, “Antiviral compounds and methods of use thereof” (Trana Discovery, Inc., priority 2014, dated 2018)
